Reference: ChEMBL document CHEMBL5614437, “Antibacterial and Anti-Inflammatory Activity of Branched Peptides Derived from Natural Host Defense Sequences” (J Med Chem, 2024)
The source made the active and inactive calls. No cut-off for these calls is given here. Bridges are numbered along the chain shown (N, C = ends). Roman numbers before positions name the chains, in order.

Tests used:
Escherichia coli [1] = assay: Antibacterial activity against Escherichia coli TG1 incubated for 12 hrs by microdilution method; type: functional
Escherichia coli [2] = assay: Antibacterial activity against Escherichia coli clinical isolate LC711/14 incubated for 12 hrs by microdilution method; type: functional
Pseudomonas aeruginosa [3] = assay: Antibacterial activity against Pseudomonas aeruginosa ATCC 27853 incubated for 12 hrs by microdilution method; type: functional
Klebsiella pneumoniae [4] = assay: Antibacterial activity against Klebsiella pneumoniae ATCC43816 incubated for 12 hrs by microdilution method; type: functional
Klebsiella pneumoniae [5] = assay: Antibacterial activity against colistin-resistant Klebsiella pneumoniae incubated for 12 hrs by microdilution method; type: functional
Enterococcus faecalis = assay: Antibacterial activity against Enterococcus faecalis 51299 incubated for 12 hrs by microdilution method; type: functional
Staphylococcus aureus = assay: Antibacterial activity against Staphylococcus aureus USA300 incubated for 12 hrs by microdilution method; type: functional
Erythrocyte [6] = assay: Hemolytic activity in human RBC assessed as hemolysis at ~15 uM incubated for 2 hrs by absorbance based plate reader analysis; type: toxicity, cell-based
RAW264.7 [7] = assay: Cytotoxicity against mouse RAW264.7 cells assessed as cell killing incubated for 4 to 24 hrs by crystal violet staining based analysis; type: toxicity; settings: time 4-24 hrs
RAW264.7 [8] = assay: Cytotoxicity against mouse RAW264.7 cells assessed as cell death at 1 log concentration incubated for 4 to 24 hrs by crystal violet staining based analysis relative to control; type: toxicity; settings: time 4-24 hrs
Lipopolysaccharide (LPS) = assay: Binding affinity to biotin-tagged LPS (unknown origin) preincubated for 30 mins followed by compound addition and 30 mins of incubation with streptavidin-POD by ELISA based microplate spectrophotometer; type: subcellular; settings: dose 1-10 µg/ml
Cell membrane [9] = assay: Induction of cytoplasmic membrane permeabilization in Escherichia coli TG1 assessed as increase in fluorescence at 2 times of MIC measured after 10 mins by PI/Sytox green dye based analysis; type: cell membranes
Cell membrane [10] = assay: Induction of cytoplasmic membrane permeabilization in Escherichia coli TG1 assessed as increase in fluorescence incubated for 100 to 120 mins by PI/Sytox green dye based analysis; settings: dose 1.5-3 µM, time 100-120 min
Cell membrane [11] = assay: Induction of cytoplasmic membrane permeabilization in Escherichia coli TG1 assessed as increase in fluorescence at MIC measured after 40 to 50 mins by PI/Sytox green dye based analysis; settings: time 40-50 min
Cell membrane [12] = assay: Induction of cytoplasmic membrane permeabilization in Escherichia coli TG1 assessed as wrinkling of membrane surface at 2 times of MIC measured after 30 to 60 mins by SEM analysis; settings: time 30-60 min
Cell membrane [13] = assay: Induction of cytoplasmic membrane permeabilization in Escherichia coli TG1 assessed as enlargement of bacterial cells at 2 times of MIC measured after 30 to 60 mins by SEM analysis; type: cell membranes; settings: time 30-60 min
Cell membrane [14] = assay: Induction of cytoplasmic membrane permeabilization in Escherichia coli TG1 assessed as loss of surface smoothness at 2 times of MIC measured after 30 to 60 mins by SEM analysis; settings: time 30-60 min
[15] = Stability of compound in human serum at 180 uM measured after 4 hrs by HPLC-MS analysis; type: ADME, cell-free
[16] = Stability of compound in human serum at 180 uM measured after 24 hrs by HPLC-MS analysis; type: ADME, cell-free
Escherichia coli [17] = assay: Antibiofilm activity against Escherichia coli TG1 assessed as inhibition of biofilm formation incubated for 24 hrs by absorbance based analysis; type: functional
Klebsiella pneumoniae [18] = assay: Antibiofilm activity against Klebsiella pneumoniae ATCC43816 assessed as inhibition of biofilm formation incubated for 24 hrs by absorbance based analysis; type: functional
Escherichia coli [19] = assay: Antibiofilm activity against 24 hrs preformed biofilm in Escherichia coli TG1 assessed as reduction in preformed biofilm incubated for 14 hrs by absorbance based analysis; type: functional
Klebsiella pneumoniae [20] = assay: Antibiofilm activity against 24 hrs preformed biofilm in Klebsiella pneumoniae ATCC43816 assessed as reduction in preformed biofilm incubated for 14 hrs by absorbance based analysis; type: functional
[21] = Selectivity ratio of biofilm prevention concentration for antibiofilm activity against Escherichia coli TG1 to MIC for antibacterial activity against Escherichia coli TG1; type: functional
Pseudomonas aeruginosa [22] = assay: Antibacterial activity against Pseudomonas aeruginosa clinical isolate FI-25 expressing VIM-1 metallo-beta-lactamase incubated for 12 hrs by microdilution method; type: functional
Pseudomonas aeruginosa [23] = assay: Antibacterial activity against Pseudomonas aeruginosa clinical isolate FI-29 expressing GES-5 beta-lactamase incubated for 12 hrs by microdilution method; type: functional
Enterococcus faecium = assay: Antibacterial activity against vancomycin-resistant Enterococcus faecium clinical isolate FI-48 incubated for 12 hrs by microdilution method; type: functional
Erythrocyte [24] = assay: Hemolytic activity in human RBC assessed as hemolysis at 5 uM incubated for 2 hrs by absorbance based plate reader analysis; type: toxicity, cell-based
Cell membrane [25] = assay: Disruption of outer membrane integrity in Escherichia coli TG1 assessed as loss of double layer integrity measured after 60 mins by TEM analysis
Cell membrane [26] = assay: Disruption of outer membrane integrity in Escherichia coli TG1 assessed as formation of blisters outside the cell measured after 60 mins by TEM analysis; type: cell membranes
Escherichia coli [27] = assay: Antibacterial activity against Escherichia coli TG1 transfected with pGEN-luxCDABE plasmid infected in female BALB/C mouse model of skin infection assessed as reduction in bacterial burden at 16 mg/kg, SC pre-infected with bacteria for 2 hrs followed by compound administration and measured on day 2 by luminescence imaging analysis relative to control; type: functional; design: scale not given: the % may be the effect or the level left; settings: time 2 day
Escherichia coli [28] = assay: Antibacterial activity against Escherichia coli TG1 transfected with pGEN-luxCDABE plasmid infected in female BALB/C mouse model of skin infection assessed as reduction in bacterial burden at 16 mg/kg, SC pre-infected with bacteria for 2 hrs followed by compound administration and measured after 2 to 3 days by luminescence imaging analysis; type: functional, organism-based; settings: time 2-3 day
Mus musculus = assay: Anti-inflammatory activity in female BALB/C skin infection mouse model infected with Escherichia coli TG1 transfected with pGEN-luxCDABE plasmid assessed as reduction in monocyte number in skin at 16 mg/kg, SC pre-infected with bacteria for 2 hrs followed by compound administration and measured after 3 days by DAPI staining based immunohistochemical analysis; type: functional, organism-based; settings: time 3.0 day
Erythrocyte [29] = assay: Hemolytic activity in human RBC assessed as hemolysis at 0.25 to 100 uM incubated for 2 hrs by absorbance based plate reader analysis; type: toxicity, cell-based; settings: dose 0.25-100 µM
[30] = Selectivity ratio of MBIC80 for antibiofilm activity against preformed biofilm in Escherichia coli TG1 to MIC for antibacterial activity against Escherichia coli TG1; type: functional

Substance: I: H-GRFKRFRKKLKK-NH2 / II: H-GRFKRFRKKLK / III: H-GRFKRFRKKL / IV: H-GRFKRFRKKL (amide I:11-IV:C, I:12-II:C, II:11-III:C)
- MIC (Escherichia coli [1]): 6 µM
- MIC (Escherichia coli [2]): > 25 µM
- MIC (Pseudomonas aeruginosa [3]): 6 µM
- MIC (Klebsiella pneumoniae [4]): 25 µM
- MIC (Klebsiella pneumoniae [5]): > 25 µM
- MIC (Enterococcus faecalis): > 25 µM
- MIC (Staphylococcus aureus): > 25 µM
- Activity (Erythrocyte [6]): Toxic
- LC50 (RAW264.7 [7]): 1.258 10^-5M
- Activity (RAW264.7 [8]): 100%
- Activity (Lipopolysaccharide (LPS)): Dose-Dependent Effect
- Activity (Cell membrane [9]): Active
- Activity (Cell membrane [10]): Dose-Dependent Effect
- Activity (Cell membrane [11]): Active
- Activity (Cell membrane [12]): Active
- Activity (Cell membrane [13]): Active
- Activity (Cell membrane [14]): Active
- Stability [15]: Stable
- Stability [16]: Unstable
- IC20 (Escherichia coli [17]): 25 µM
- IC20 (Klebsiella pneumoniae [18]): 50 µM
- MBIC80 (Escherichia coli [19]): 50 µM
- MBIC80 (Klebsiella pneumoniae [20]): 50 µM
- Selectivity ratio [21]: 4

Substance: I: H-TLLKKVLKAAAKKK-NH2 / II: H-TLLKKVLKAAAKK / III: H-TLLKKVLKAAAK / IV: H-TLLKKVLKAAAK (amide I:13-IV:C, I:14-II:C, II:13-III:C)
- MIC (Escherichia coli [1]): 1.5 µM
- MIC (Escherichia coli [2]): 3 µM
- MIC (Pseudomonas aeruginosa [3]): 6 µM
- MIC (Pseudomonas aeruginosa [22]): 12 µM
- MIC (Pseudomonas aeruginosa [23]): 12 µM
- MIC (Klebsiella pneumoniae [4]): 6 µM
- MIC (Klebsiella pneumoniae [5]): 6 µM
- MIC (Enterococcus faecalis): 25 µM
- MIC (Enterococcus faecium): 6 µM
- MIC (Staphylococcus aureus): > 25 µM
- Activity (Erythrocyte [24]): Toxic
- LC50 (RAW264.7 [7]): 4.405 10^-7M
- Activity (RAW264.7 [8]): 100%
- Activity (Lipopolysaccharide (LPS)): Dose-Dependent Effect
- Activity (Cell membrane [9]): Active
- Activity (Cell membrane [10]): Dose-Dependent Effect
- Activity (Cell membrane [11]): Active
- Activity (Cell membrane [12]): Active
- Activity (Cell membrane [13]): Active
- Activity (Cell membrane [14]): Active
- Activity (Cell membrane [25]): Active
- Activity (Cell membrane [26]): Active
- Stability [15]: Stable
- Stability [16]: Stable
- IC20 (Escherichia coli [17]): 1.5 µM
- IC20 (Klebsiella pneumoniae [18]): 50 µM
- MBIC80 (Escherichia coli [19]): 3 µM
- MBIC80 (Klebsiella pneumoniae [20]): 50 µM
- Activity (Escherichia coli [27]): 75%
- Activity (Escherichia coli [28]): Active
- Activity (Mus musculus): Active

Substance: I: H-KKLLGKNWKLMKK-NH2 / II: H-KKLLGKNWKLMK / III: H-KKLLGKNWKLM / IV: H-KKLLGKNWKLM (amide I:12-IV:C, I:13-II:C, II:12-III:C)
- MIC (Escherichia coli [1]): 3 µM
- MIC (Escherichia coli [2]): > 25 µM
- MIC (Pseudomonas aeruginosa [3]): 3 µM
- MIC (Klebsiella pneumoniae [4]): 25 µM
- MIC (Klebsiella pneumoniae [5]): > 25 µM
- MIC (Enterococcus faecalis): > 25 µM
- MIC (Staphylococcus aureus): > 25 µM
- Activity (Erythrocyte [29]): Non-Toxic
- LC50 (RAW264.7 [7]): 1 10^-5M
- Activity (RAW264.7 [8]): 100%
- Activity (Lipopolysaccharide (LPS)): Dose-Dependent Effect
- Activity (Cell membrane [9]): Active
- Activity (Cell membrane [10]): Dose-Dependent Effect
- Activity (Cell membrane [11]): Active
- Activity (Cell membrane [12]): Active
- Activity (Cell membrane [13]): Active
- Activity (Cell membrane [14]): Active
- Stability [15]: Stable
- Stability [16]: Stable
- MBIC80 (Escherichia coli [19]): 25 µM
- MBIC80 (Klebsiella pneumoniae [20]): 50 µM
- Selectivity ratio [30]: 8
